Holding throughout (experiment): biochemical
What all share (assay type): biochemical

Assay [1] concerns the target T1, 382 unique human kinases (Homo sapiens, UniProt P29320).
T1 construct: purchased Reaction Biology (HotSpot contract assay)
T1 sequence (P29320 21-983): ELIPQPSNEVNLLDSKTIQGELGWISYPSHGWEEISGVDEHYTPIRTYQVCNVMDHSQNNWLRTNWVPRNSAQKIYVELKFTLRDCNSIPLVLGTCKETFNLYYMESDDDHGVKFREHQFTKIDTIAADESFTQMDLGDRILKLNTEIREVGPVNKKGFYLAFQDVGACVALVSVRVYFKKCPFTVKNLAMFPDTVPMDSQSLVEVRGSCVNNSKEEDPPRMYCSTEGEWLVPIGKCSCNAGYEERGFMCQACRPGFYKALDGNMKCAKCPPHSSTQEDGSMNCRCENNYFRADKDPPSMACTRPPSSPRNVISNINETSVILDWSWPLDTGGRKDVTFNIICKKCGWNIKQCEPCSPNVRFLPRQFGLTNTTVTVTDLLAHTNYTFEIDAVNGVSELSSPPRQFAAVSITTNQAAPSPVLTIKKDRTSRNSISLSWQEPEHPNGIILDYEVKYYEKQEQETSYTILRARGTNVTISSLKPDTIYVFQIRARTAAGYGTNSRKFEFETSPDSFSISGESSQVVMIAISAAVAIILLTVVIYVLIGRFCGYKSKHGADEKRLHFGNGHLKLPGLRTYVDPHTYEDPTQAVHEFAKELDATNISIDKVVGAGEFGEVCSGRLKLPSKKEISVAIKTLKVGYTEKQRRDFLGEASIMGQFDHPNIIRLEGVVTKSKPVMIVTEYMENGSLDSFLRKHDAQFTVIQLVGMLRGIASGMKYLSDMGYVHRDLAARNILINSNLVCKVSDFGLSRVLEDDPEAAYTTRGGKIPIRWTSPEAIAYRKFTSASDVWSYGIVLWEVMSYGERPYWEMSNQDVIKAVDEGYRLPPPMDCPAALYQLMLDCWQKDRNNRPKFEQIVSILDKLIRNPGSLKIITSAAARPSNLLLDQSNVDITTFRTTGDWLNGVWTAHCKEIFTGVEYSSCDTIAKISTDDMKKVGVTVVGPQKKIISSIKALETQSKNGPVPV
The conditions noted are these: EPHA3, 10 uM; for remaining activity at 10 µM: read-out: % Enzyme Activity (relative to DMSO controls).

Assay [2] concerns the target T2, 382 unique human kinases (Homo sapiens, UniProt P12931, T341M).
T2 construct: purchased Reaction Biology (HotSpot contract assay)
The following applies: kinase c-Src (T341M), compound 10 uM; for remaining activity at 10 µM: read-out: % Enzyme Activity (relative to DMSO controls).

The target in assay [3] is T3, 382 unique human kinases (Homo sapiens, UniProt Q56UN5).
T3 construct: purchased Reaction Biology (HotSpot contract assay)
T3 sequence (Q56UN5 1-1328): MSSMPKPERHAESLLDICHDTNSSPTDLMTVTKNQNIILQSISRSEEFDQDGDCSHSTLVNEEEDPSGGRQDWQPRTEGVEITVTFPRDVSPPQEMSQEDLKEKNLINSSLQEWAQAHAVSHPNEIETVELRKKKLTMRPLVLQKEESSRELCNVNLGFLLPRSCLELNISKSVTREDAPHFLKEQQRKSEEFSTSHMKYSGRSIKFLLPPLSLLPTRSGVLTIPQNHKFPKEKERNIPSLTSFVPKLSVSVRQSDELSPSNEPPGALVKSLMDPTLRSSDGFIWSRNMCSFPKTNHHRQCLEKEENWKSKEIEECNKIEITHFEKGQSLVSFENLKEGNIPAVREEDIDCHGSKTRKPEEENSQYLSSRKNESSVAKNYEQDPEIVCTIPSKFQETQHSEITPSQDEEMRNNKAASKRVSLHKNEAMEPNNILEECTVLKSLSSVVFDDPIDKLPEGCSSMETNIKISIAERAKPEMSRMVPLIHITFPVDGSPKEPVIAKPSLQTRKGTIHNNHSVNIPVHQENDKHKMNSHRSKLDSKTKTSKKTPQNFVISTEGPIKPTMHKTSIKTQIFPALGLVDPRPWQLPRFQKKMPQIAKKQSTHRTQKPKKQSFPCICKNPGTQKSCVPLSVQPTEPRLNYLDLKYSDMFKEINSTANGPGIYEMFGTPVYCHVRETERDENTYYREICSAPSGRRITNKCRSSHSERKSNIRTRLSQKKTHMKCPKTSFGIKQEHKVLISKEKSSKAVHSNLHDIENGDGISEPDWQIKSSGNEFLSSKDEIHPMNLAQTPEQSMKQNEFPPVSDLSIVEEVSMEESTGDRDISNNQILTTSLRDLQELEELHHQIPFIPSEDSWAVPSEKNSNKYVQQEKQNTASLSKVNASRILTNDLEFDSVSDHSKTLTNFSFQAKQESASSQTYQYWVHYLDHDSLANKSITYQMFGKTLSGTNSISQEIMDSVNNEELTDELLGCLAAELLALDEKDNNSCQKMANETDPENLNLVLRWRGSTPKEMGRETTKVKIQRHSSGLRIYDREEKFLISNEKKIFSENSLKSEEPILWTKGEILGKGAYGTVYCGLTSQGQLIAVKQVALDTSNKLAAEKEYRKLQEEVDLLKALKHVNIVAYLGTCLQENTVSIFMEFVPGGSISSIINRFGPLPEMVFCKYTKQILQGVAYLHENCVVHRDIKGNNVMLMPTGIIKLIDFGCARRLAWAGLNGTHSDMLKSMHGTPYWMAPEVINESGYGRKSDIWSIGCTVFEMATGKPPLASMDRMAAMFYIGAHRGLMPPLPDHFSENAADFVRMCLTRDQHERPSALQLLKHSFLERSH
The conditions noted are these: kinase YSK4/MAP3K19, compound 10 uM; for remaining activity at 10 µM: read-out: % Enzyme Activity (relative to DMSO controls).

Assay [4] addresses T4, 382 unique human kinases (Homo sapiens, UniProt P51955).
T4 construct: purchased Reaction Biology (HotSpot contract assay)
T4 sequence (P51955 1-445): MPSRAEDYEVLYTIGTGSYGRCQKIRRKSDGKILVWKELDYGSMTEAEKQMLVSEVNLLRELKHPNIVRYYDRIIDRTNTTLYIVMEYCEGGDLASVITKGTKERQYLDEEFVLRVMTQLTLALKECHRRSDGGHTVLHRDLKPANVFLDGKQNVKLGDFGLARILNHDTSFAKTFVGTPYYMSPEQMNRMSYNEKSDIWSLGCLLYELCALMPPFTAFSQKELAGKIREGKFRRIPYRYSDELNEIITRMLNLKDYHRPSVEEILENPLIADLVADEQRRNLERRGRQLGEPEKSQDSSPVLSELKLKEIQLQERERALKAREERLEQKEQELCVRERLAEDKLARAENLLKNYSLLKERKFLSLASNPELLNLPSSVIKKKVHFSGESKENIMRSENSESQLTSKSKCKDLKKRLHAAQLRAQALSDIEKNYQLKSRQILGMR
The following applies: NEK2, [ATP] 10 µM, compound 10 uM; for remaining activity at 10 µM: read-out: % Enzyme Activity (relative to DMSO controls).

The record followed here is paper PMC8550792, “Evolution of kinase polypharmacology across HSP90 drug discovery” (Cell Chemical Biology, 2021).

In the case of `CC(C)c1cc(-c2n[nH]c(=O)n2-c2ccc3c(ccn3C)c2)c(O)cc1O` [Ganetespib (STA9090)], the remaining activity at 10 µM at 382 unique human kinases [1] was determined as 73.7%; on 382 unique human kinases [2] it was 86.3%; at 382 unique human kinases [3] it was 85.8%.

Turning to `CC(C)c1cc(-c2n[nH]c(=O)n2-c2ccc3c(ccn3C)c2)c(O)cc1O` [Ganetespib], the remaining activity at 10 µM on 382 unique human kinases [4] came to 51.6%.

Turning to `CCNC(=O)c1noc(-c2cc(C(C)C)c(O)cc2O)c1-c1ccc(CN2CCOCC2)cc1` [Luminespib (AUY-922)], the results for the “% Enzyme Activity (relative to DMSO controls)” value at 382 unique human kinases [1], on 382 unique human kinases [2] and on 382 unique human kinases [3] were 100.00%, 97.19% and 85.23%, respectively. For the same compound, the remaining activity at 10 µM at 382 unique human kinases [1] worked out at 104%; on 382 unique human kinases [2] it was 98.3%; on 382 unique human kinases [3], 88.7%.

As to `CCNC(=O)c1noc(-c2cc(C(C)C)c(O)cc2O)c1-c1ccc(CN2CCOCC2)cc1` [Luminespib], on 382 unique human kinases [4], the “% Enzyme Activity (relative to DMSO controls)” value is recorded as 101.57% and the remaining activity at 10 µM was 103%.
